In patent US20260176289A1, “SMALL MOLECULE INHIBITORS OF KRAS PROTEINS” (Merck Sharp & Dohme LLC, priority 2022, published 2026):
Where two headings read alike, the source gives them in different places.

Key:
[1] = biological target: KRAS-WT (Homo sapiens, UniProt P01116); experiment: SOS-catalyzed nucleotide exchange assay (Procedure A, TR-FRET), KRAS-WT; assay type: biochemical; settings: nucleotide exchange, read-out: KRAS WT GNE IC50
In short: (§1)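 Signal ratio (520/495 nm, excitation 340 nm) reports Bodipy-GDP retention on biotinylated RAS after SOS-catalyzed exchange with 3 mM GTP. SOS was 40 nM, except 160 nM for G12V. Room-temperature exchange lasted 60 min (90 min for G12V), following a 60 min compound preincubation.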

[2] = biological target: KRAS-G12C (C51S/C80L/C118S) (Homo sapiens, UniProt P01116, C118S/C51S/C80L/G12C); experiment: SOS-catalyzed nucleotide exchange assay (Procedure A, TR-FRET), KRAS-G12C; assay type: biochemical; settings: nucleotide exchange, Procedure A; read-out: KRAS G12C GNE IC50
Chain of KRAS-G12C (C51S/C80L/C118S) (P01116 with tags, fused parts or gaps isoform P01116-2 G12C/C51S/C80L/C118S): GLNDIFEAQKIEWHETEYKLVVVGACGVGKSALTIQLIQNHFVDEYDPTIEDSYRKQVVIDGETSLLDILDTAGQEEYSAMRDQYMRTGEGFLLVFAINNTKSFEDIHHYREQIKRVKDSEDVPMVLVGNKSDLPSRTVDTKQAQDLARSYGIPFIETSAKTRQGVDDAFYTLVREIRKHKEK
Excerpt: (§2) Procedure for SOS-Catalyzed Nucleotide Exchange Assay for KRAS-WT, G12C/D/V, G13D, HRAS, and NRAS (Procedure A)
(§3) Recombinant KRAS-G12C protein used in this assay has an additional triple mutation (C51S/C80L/C118S). Whereas KRAS-WT, G12D/V, G13D, HRAS and NRAS are in context of their WT protein sequence background. Specifically, the SOS-catalyzed nucleotide exchange assay utilizes a preformed TR-FRET complex containing a specific biotinylated RAS protein (KRAS-WT, G12C/V/D, G13D, HRAS, NRAS; described above) with Bodipy-GDP, and Terbium-streptavidin. Compounds are preincubated with this complex for 60 minutes. Subsequently, recombinant human SOS protein and unlabeled GTP are added to initiate the exchange reaction. Small molecule inhibitors stabilize the Bodipy-GDP complex whereas the untreated protein rapidly exchanges Bodipy-GDP for unlabeled GTP resulting in reduced TR-FRET signal.
(§4) To assemble the preformed TR-FRET complexes, each biotinylated RAS protein is diluted to 2 μM in an EDTA Buffer (20 mM HEPES pH 7.5, 50 mM sodium chloride, 10 mM EDTA, and 0.01% Tween) and incubated at room temperature for one hour. This mixture is then further diluted to 90 nM in an Assay Buffer (20 mM HEPES pH 7.5, 150 mM sodium chloride, 10 mM magnesium chloride, and 0.005% Tween) containing 15 nM of Terbium-Streptavidin (Invitrogen, catalog #PV3577) and 900 nM of Bodipy-GDP (Invitrogen, catalog #G22360) and incubated at room temperature for six hours. It should be noted that this preformed TR-FRET complex for each of the RAS protein were made ahead of time, aliquoted and stored at −80° C. until the day of the experiment.
(§5) Each test compound (10 mM stock in DMSO) is diluted in DMSO to make a final-10-point, 3-fold dilution and is acoustically dispensed into a 384-well assay plate (Corning, catalog #3820) using an Echo 550 (Labcyte). Each well of the assay plate receives 3 μL of a specific 3×RAS preformed TR-FRET complex and 3 μL of Assay Buffer and is incubated at room temperature for 60 minutes (preincubation time). Each well then receives 3 μL of 3×recombinant human SOS protein and GTP (Sigma, G8877) in Assay Buffer and is incubated at room temperature for 30 minutes (G13D), 60 minutes (KRAS WT/G12C/D, H/NRAS) or 90 minutes for G12V. The final reaction in each well of 9 μL consists of 3 mM GTP, specific Ras and SOS proteins in the following concentrations: KRAS-G12C/SOS=3 nM/40 nM, KRAS-WT and G12D/SOS=1 nM/40 nM, KRAS-G12V/SOS=1.25 nM/160 nM. KRAS-G13D/SOS=1.25 nM/0 nM, HRAS and NRAS=1.25 nM/40 nM.
(§6) The time-resolved fluorescence resonance energy transfer (TR-FRET) signal is measured on an Envision (PerkinElmer) plate reader: Excitation filter=340 nm; emission 1=495 nm; emission2=520 nm; dichroic mirror=D400/D505; delay time=[…]. The signal of each well is determined as the ratio of the emission at 520 nm to that at 495 nm. Percent effect of each well is determined after normalization to control wells containing DMSO (no effect) or a saturating concentration of inhibitor (max effect). The apparent effect as a function of compound concentration is fit to a four-parameter logistic equation.

[3] = biological target: KRAS-G12D (Homo sapiens, UniProt P01116, G12D); experiment: SOS-catalyzed nucleotide exchange assay (Procedure A, TR-FRET), KRAS-G12D; assay type: biochemical; settings: nucleotide exchange, read-out: KRAS G12D GNE IC50
Chain of KRAS-G12D (P01116 with tags, fused parts or gaps isoform P01116-2 G12D): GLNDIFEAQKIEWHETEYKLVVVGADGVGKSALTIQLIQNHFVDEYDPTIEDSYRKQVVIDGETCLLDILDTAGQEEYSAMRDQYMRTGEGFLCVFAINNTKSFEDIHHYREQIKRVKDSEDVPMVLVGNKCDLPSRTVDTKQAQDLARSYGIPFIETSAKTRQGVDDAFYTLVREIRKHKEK
In short: as §1

[4] = biological target: KRAS-G12V (Homo sapiens, UniProt P01116, G12V); experiment: SOS-catalyzed nucleotide exchange assay (Procedure A, TR-FRET), KRAS-G12V; assay type: biochemical; settings: nucleotide exchange, read-out: KRAS G12V GNE IC50
Chain of KRAS-G12V (P01116 with tags, fused parts or gaps isoform P01116-2 G12V): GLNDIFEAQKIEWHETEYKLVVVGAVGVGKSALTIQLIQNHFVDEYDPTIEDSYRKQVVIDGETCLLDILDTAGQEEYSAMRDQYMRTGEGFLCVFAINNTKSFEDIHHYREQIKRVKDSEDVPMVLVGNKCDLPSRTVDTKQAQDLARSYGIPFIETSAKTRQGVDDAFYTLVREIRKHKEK
In short: as §1

[5] = biological target: KRAS-G13D (Homo sapiens, UniProt P01116, G13D); experiment: SOS-catalyzed nucleotide exchange assay (Procedure A, TR-FRET), KRAS-G13D; assay type: biochemical; settings: nucleotide exchange, Procedure A; read-out: KRAS G13D GNE IC50
Chain of KRAS-G13D (P01116 with tags, fused parts or gaps isoform P01116-2 G13D): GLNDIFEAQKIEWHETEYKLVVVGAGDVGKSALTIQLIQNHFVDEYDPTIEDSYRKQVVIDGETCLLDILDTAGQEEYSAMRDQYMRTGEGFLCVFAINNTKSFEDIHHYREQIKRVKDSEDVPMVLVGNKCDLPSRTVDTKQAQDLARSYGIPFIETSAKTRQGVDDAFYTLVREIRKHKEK
Excerpt: as §2, §3, §4, §5, §6

[6] = test system: MKN-1 cells; experiment: Cellular phospho-ERK assay, MKN-1 cells (amplified wild-type KRAS); assay type: cell-based; settings: Homo sapiens, read-out: MKN1 pERK IC50
In short: (§7)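 Cells seeded at 10,000-15,000 per well were incubated overnight, then exposed to compound for 2 hours at 37 °C in a 10-point, 1:3 series topping at 30 μM final. Lysates were assayed by Alpha SureFire Ultra multiplex for p-ERK and total ERK; IC50 came from a 4-parameter logistic fit of their ratio.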

[7] = test system: AsPC-1 cells; experiment: Cellular phospho-ERK assay, AsPC-1 cells (homozygous KRAS-G12D); assay type: cell-based; settings: Homo sapiens, ASPC1, 2 h, read-out: AsPC1 pERK IC50
In short: as §7

[8] = test system: SW620 cells; experiment: Cellular phospho-ERK assay, SW620 cells (homozygous KRAS-G12V); assay type: cell-based; settings: Homo sapiens, read-out: SW620 pERK IC50
In short: as §7

[9] = SW-620, 2 hours compound incubation
[10] = amplified wild-type KRAS, 2 hours

Chain of KRAS-WT (P01116 with tags, fused parts or gaps isoform P01116-2): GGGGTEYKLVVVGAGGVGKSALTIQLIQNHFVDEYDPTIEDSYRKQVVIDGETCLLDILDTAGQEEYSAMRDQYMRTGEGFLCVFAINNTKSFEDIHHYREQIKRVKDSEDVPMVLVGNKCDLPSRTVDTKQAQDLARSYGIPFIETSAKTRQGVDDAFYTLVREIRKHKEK

IC50 [1] | IC50 [2] | IC50 [3] | IC50 [4] | IC50 [5] | IC50 ([6]; 2 hours compound incubation) | IC50 ([7]; 2 hours compound incubation) | IC50 [8, 9] | SMILES | IC50 [6, 10] | IC50 ([7]; KRAS-G12D, 2 hours) | IC50 ([8]; SW-620, KRAS-G12V, 2 hours)
1520 nM | 2220 nM | 1310 nM | 2950 nM | 1200 nM | – | – | – | C[C@@]1(O)COCCN(c2nc(OC[C@@]34CCCN3C[C@H](F)C4)nc3sc4c(-c5ccc(F)c6sc(N)c(C#N)c56)nccc4c23)C1 [Ex-275, 2-amino-7-fluoro-4-(2-(((2R,7aS)-2-fluoro-tetrahydro-1H-pyrrolizin-7a(5H)-yl)methoxy)-4-((S)-6-hydroxy-6-methyl-1,4-oxazepan-4-yl)pyrido[4′,3′:4,5]thi-eno[2,3-d]pyrimidin-8-yl)benzo[b]thiophene-3-carbonitrile] | – | – | –
23.5 nM | 3.57 nM | 7.07 nM | 22.2 nM | – | 22.9 nM | 24 nM | 15.4 nM | CN(C)C[C@@]1(COc2nc(N3CCOC[C@@](C)(O)C3)c3c(n2)sc2c(-c4c(C5CC5)c(C(F)(F)F)cc5[nH]ncc45)nccc23)CC1(F)F [Ex-206, (6S)-4-(8-(5-cyclo-propyl-6-(trifluoro-methyl)-1H-inda-zol-4-yl)-2-(((R)-1-((dimethylamino)-methyl)-2,2-difluorocycloprop-yl)methoxy)pyrido [4′,3′:4,5]thieno [2,3-d]pyrimidin-4-yl)-6-methyl-1,4-oxazepan-6-ol] | – | – | –
404 nM | – | 285 nM | 206 nM | – | 373 nM | 923 nM | 220 nM | CCC1(O)COCCN(c2nc(OC[C@@]34CCCN3C[C@H](F)C4)nc3sc4c(-c5c(C(F)(F)F)c(C)cc6[nH]ncc56)nccc4c23)C1 (stereo partly drawn) [Ex-201, 6-ethyl-4-(2-(((2R,7aS)-2-fluorotetrahydro-1H-pyr-rolizin-7a(5H)-yl)meth-oxy)-8-(6-methyl-5-(tri-fluoromethyl)-1H-indazol-4-yl)pyrido[4′,3′:4,5]thieno[2,3-d]pyrimidin-4-yl)-1,4-oxazepan-6-ol] | – | – | –
63.8 nM | – | 23.6 nM | 26.2 nM | – | 73.6 nM | 254 nM | 91.1 nM | C/C=C1\CCCc2cc3[nH]ncc3c(-c3nccc4c3sc3nc(OC[C@@]56CCCN5C[C@H](F)C6)nc(N5CCOC[C@@](C)(O)C5)c34)c21 [Ex-174, (6S)-4-(8-((E)-5-ethyl-idene-5,6,7,8-tetrahydro-1H-benzo[f]indazol-4-yl)-2-(((2R,7aS)-2-fluoro-tetrahydro-1H-pyrrolizin-7a(5H)-yl)methoxy)pyr-ido[4′,3′:4,5]thieno[2,3-d]pyrimidin-4-yl)-6-meth-yl-1,4-oxazepan-6-ol] | – | – | –
43.6 nM | – | 19.8 nM | 47.5 nM | – | 106 nM | 133 nM | 48 nM | C[C@@]1(O)COCCN(c2nc(OC[C@@]34CCCN3C[C@H](F)C4)nc3sc4c(-c5c6cn[nH]c6cc6ccc(F)c(Cl)c56)nccc4c23)C1 [Ex-162] | – | – | –
17.8 nM | – | 4.75 nM | 39.8 nM | – | 89.8 nM | 67.3 nM | 56.1 nM | C[C@@]1(O)COCCN(c2nc(OC[C@@]34CCCN3C[C@]3(CC3(F)F)C4)nc3sc4c(-c5c(C6CC6)c(Cl)cc6[nH]ncc56)nccc4c23)C1 [Ex-212, (6S)-4-(8-(6-chloro-5-cyclopropyl-1H-indazol-4-yl)-2-(((1R,7a'S)-2,2-difluorodihydro-1′H,3′H-spiro[cyclo-propane-1,2′-pyrrol-izin]-7a′(5′H)-yl)-methoxy)pyrido [4′,3′:4,5]thieno[2,3-d]pyrimidin-4-yl)-6-methyl-1,4-oxaze-pan-6-ol] | – | – | –

SMILES | IC50 [1] | IC50 [2] | IC50 [3] | IC50 [4] | IC50 [5] | IC50 ([6]; 2 hours compound incubation) | IC50 ([7]; 2 hours compound incubation) | IC50 [8, 9] | IC50 [6, 10] | IC50 ([7]; KRAS-G12D, 2 hours) | IC50 ([8]; SW-620, KRAS-G12V, 2 hours)
CN1CCC[C@H]1COc1nc(N2CCOC[C@@](C)(O)C2)c2c(n1)sc1c(-c3c(C4CC4)c(Cl)cc4[nH]ncc34)nccc12 [Ex-80, (6S)-4-(8-(6-chloro-5-cyclopropyl-1H-indazol-4-yl)-2-(((S)-1-methylpyrrolidin-2-yl)methoxy)pyrido[4′,3′:4,5]thi-eno[2,3-d]pyrimidin-4-yl)-6-methy1-1,4-oxazepan-6-ol] | 89 nM | – | 32.7 nM | 42 nM | – | – | – | – | 143 nM | 200 nM | 131 nM
Cn1c2nc(OC[C@@]34CCCN3C[C@H](F)C4)nc(N3CCOC[C@@](C)(O)C3)c2c2ccnc(-c3c(C4(F)CC4)c(Cl)cc4[nH]ncc34)c21 (single isomer, unassigned) [Ex-3] | 17.2 nM | – | 10.5 nM | 15.3 nM | – | – | – | – | 134 nM | 207 nM | 95.5 nM
C[C@@]1(O)COCCN(c2nc(OC[C@@]34CCCN3C[C@H](F)C4)nc3sc4c(-c5c6c(cc7[nH]ncc57)CC5CC65)nccc4c23)C1 (stereo partly drawn) [Ex-90, (6S)-4-(2-(((2R,7aS)-2-fluorotetrahydro-1H-pyrrolizin-7a(5H)-yl)methoxy)-8-(4b,5,5a,6-tetrahydro-1H-cyclopropa[4,5]cyclopen-ta[1,2-f]indazol-4-yl)pyrido[4′,3′:4,5]thieno [2,3-d]pyrimidin-4-yl)-6-methyl-1,4-oxazepan-6-ol] | 152 nM | – | 48.8 nM | 85 nM | – | – | – | – | 174 nM | 311 nM | 193 nM
C[C@@]1(O)COCCN(c2nc(OC[C@@]34CCCN3C[C@H](F)C4)nc3sc4c(-c5c(C6(F)CC6)c(C(F)(F)F)cc6[nH]ncc56)nccc4c23)C1 [Ex-55, (6S)-4-(8-(5-(1-fluorocyclopropyl)-6-(trifluoromethyl)-1H-indazol-4-yl)-2-(((2R,7aS)-2-fluorotetrahydro-1H-pyrrolizin-7a(5H)-yl)methoxy)pyrido[4′,3′:4,5]thi-eno[2,3-d]pyrimidin-4-yl)-6-methyl-1,4-oxazepan-6-ol] | 26.4 nM | – | 9.34 nM | 18.2 nM | – | – | – | – | 45 nM | 107 nM | 45.9 nM
